Laboratory results taken from PubChem BioAssay AID179 (DTP/NCI, 2004).
Activity calls are given as the source filed them.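 The calls were made as follows: active = compounds giving half or more protection of infected cells from virus-caused growth loss, again on retest; inactive = the rest.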

Test system: CEM cells HIV-1 protection, formazan growth assay
Assay: NCI AIDS Antiviral Assay
Conditions: for IC50: measured here: growth of uninfected CEM cells
How it was run: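 Five concentrations of each compound were applied to infected and uninfected human CEM cells. Protection from HIV-1 was judged from growth measured with a soluble formazan assay.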

| SMILES | EC50 | IC50 | outcome |
| --- | --- | --- | --- |
| CC(=O)OCC1OC(OC(C)=O)C(Nc2ncc(-c3ccc(C)cc3)s2)C(OC(C)=O)C1OC(C)=O (stereo not given) | > 200 µM | 13.2 µM |  |
| NC(=Nc1ccccc1)C(F)(F)F | > 200 µM | > 200 µM |  |
| COC(=O)C12CN(C)CC(C(=O)OC)(C1=O)C(c1ccccc1)OC2c1ccccc1 (stereo not given) |  |  | inactive |
| Sc1cccc2c(S)cccc12 | > 200 µM | > 200 µM |  |
| CCCCCCCCCCCCCCCC[N+](C)(C)Cc1ccccc1 | > 200 µM | 3.31 µM |  |
| COC(=O)[C@@H]1Cc2ccc(OC)c(c2)OCCC(=O)N1 | > 200 µM | > 200 µM |  |
| CCc1nnc2n1N=C(c1ccc(-c3ccccc3)cc1)CS2 | > 200 µM | 11.5 µM |  |
| CCOC(=O)c1[nH]n(-c2ccccc2)c(=O)c1/C=N/C(=S)Nc1c(CC)cccc1CC | > 100 µM | 24.5 µM |  |
| c1ccc2sc(SSc3nc4ccccc4s3)nc2c1 | > 200 µM | > 200 µM |  |
| COC(=O)c1cc2c(c(C(=O)OC)c1)CCC2 | > 200 µM | 40.7 µM |  |
| Cc1c2ccccc2nc(CSC#N)[n+]1[O-] | > 200 µM | 36.3 µM |  |
| CC(=O)c1ccc(NC(=O)C(=O)CC(=O)c2sc(-n3nc(-c4ccccc4)cc3-c3ccccc3)nc2C)cc1 | > 155 µM | > 155 µM |  |
| COc1cc2ccc1OCc1cccc(n1)COc1ccc(cc1OC)C=NCCNCCN=C2 | 132 µM | > 200 µM |  |
| CCN=C(N)C(C)SS(=O)(=O)O (stereo not given) | > 200 µM | 170 µM |  |
| O=C(OC1C(OC(=O)c2cccnc2)C(OC(=O)c2cccnc2)C(OC(=O)c2cccnc2)C(OC(=O)c2cccnc2)C1OC(=O)c1cccnc1)c1cccnc1 (stereo not given) | > 200 µM | > 200 µM |  |
| CC/C(=C(\C#N)c1ccc(OC)cc1)c1ccc(N(C)C)cc1 | > 20 µM | 0.871 µM |  |
| COC(=O)CC(C(C(C)=O)C(=O)OCc1ccccc1)N1C(=O)OCC1c1ccccc1 (stereo not given) | > 100 µM | 95.5 µM |  |
| CN(NC(=O)CCCl)C1=NCCN1 | > 200 µM | > 200 µM |  |
| O=c1[nH]cnc2c1ncn2CCCCO |  |  | inactive |
| Cc1nn(C(=O)c2ccc(Cl)cc2)c2c1C(c1ccccc1)SC(N)=N2 (stereo not given) |  |  | inactive |
| CC1(C)COC(Cc2ccccc2)=N1 | > 200 µM | > 200 µM |  |

| SMILES | EC50 | IC50 | outcome |
| --- | --- | --- | --- |
| COc1cc(C=O)c(-c2cc3c(cc2C=O)OCO3)c(OC)c1OC | > 145 µM | 51.3 µM |  |
| O=C1c2ccccc2Sc2ccccc2N1CCCCCCN1CCN(c2ccc(F)cc2)CC1 | > 200 µM | 10.5 µM |  |
| NC(=O)C#CC#CC#CCO | > 891 µM | 0.479 µM |  |
| Nc1ccc(S(=O)(=O)Nc2nc3ccccc3nc2N2CCCCC2)cc1 | > 200 µM | 72.4 µM |  |
| COc1ccc(-n2cnn3c(=O)c4cn[nH]c4nc23)cc1 | > 200 µM | > 200 µM |  |
| CCN(CC)CCn1c2ccccc2c(=O)c2c(OC)ccc(OC)c21 |  |  | inactive |
| O=C1c2c(ccc3c2CCC3)CC12Cc1cc3c(cc1C2)CCC3 | > 200 µM | > 200 µM |  |
| Cc1ccc(C)c(NC(=O)C(=O)C2C(=O)C3=C(CC2(C)C)Nc2ccccc2S3)c1 (stereo not given) | > 85.1 µM | > 85.1 µM |  |
| c1cc2c(ncc3cscc32)s1 |  |  | inactive |
| Cn1cnc([N+](=O)[O-])c1Sc1nncc2[nH]cnc12 | 46.8 µM | > 200 µM |  |
| COC(=O)c1ccc2c(c1)CC1(C2)Cc2ccccc2C1=O (stereo not given) | > 200 µM | 28.2 µM |  |
| Cc1c(C)c2ccc3c(c2oc1=O)[C@@H](OC(=O)C12CCC(C)(C(=O)O1)C2(C)C)[C@@H](OC(=O)C12CCC(C)(C(=O)O1)C2(C)C)C(C)(C)O3 (stereo not given in full) | 0.245 µM | 123 µM |  |
| CCCCCCNC(=O)CNC(=O)c1ccccc1SC(=O)CCCC[n+]1ccccc1 | > 200 µM | 34.7 µM |  |
| COc1ccc(CNc2nc3ccc(C(F)(F)F)cc3nc2-c2ccccc2)cc1OC | > 12 µM | > 12 µM |  |
| Cc1c(CO)[n+](=O)c2ccccc2n1[O-] | > 200 µM | > 200 µM |  |
| CC(O)CN(CC(C)O)N(CC(C)O)CC(C)O (stereo not given) | > 955 µM | 219 µM |  |
| COc1c(Cl)cc(C(=CCC[C@H]2CC[C@@]3(C)C(CC[C@@H]4C3CC[C@]3(C)C(C(C)CCCC(C)C)CCC43)C2)c2cc(Cl)c(OC)c(C(=O)O)c2)cc1C(=O)O (stereo not given in full) | 12 µM | 302 µM |  |
| CCCCCOP(=O)(OCCCCC)C(NC(C)=O)(C(=O)OCC)C(F)(F)F (stereo not given) | > 200 µM | 110 µM |  |
| CCn1c2ccccc2c2ccc(C3C(C(=O)OC)=C(C)NC(C)=C3C(=O)OC)cc21 |  |  | inactive |
| CC(=O)N=C1N(/C=C2\C(=O)Oc3ccccc3C2=O)C(=O)/C(=C/c2ccccc2Cl)N1C | > 200 µM | 148 µM |  |
| Cc1c2oc3c(C)ccc(C(=O)NC4C(=O)NC(C(C)C)C(=O)N5CCCC[C@H]5C(=O)N(C)CC(=O)N(C)[C@@H](C(C)C)C(=O)OC4C)c3nc-2c(C(=O)NC2C(=O)N[C@H](C(C)C)C(=O)N3CCCC[C@H]3C(=O)N(C)CC(=O)N(C)C(C(C)C)C(=O)OC2C)c(N)c1=O (stereo not given in full) | > 2 µM | 0.00331 µM |  |

| SMILES | EC50 | IC50 | outcome |
| --- | --- | --- | --- |
| O=[N+]([O-])c1ccc(S(=O)(=O)c2ccc([N+](=O)[O-])cc2C(F)(F)F)c(C(F)(F)F)c1 |  |  | inactive |
| Cn1c(=O)c(-c2ccccc2)c(O)c2ccccc21 | > 200 µM | > 200 µM |  |
| Cc1ccc(C2=C(C#N)C(=O)N3CCN=C3S2)cc1 | > 200 µM | > 100 µM |  |
| c1ccc2nc3c(cc2c1)[nH]c1ccccc13 | > 339 µM | 204 µM |  |
| COc1ccc(CCCCl)c(C2=NCCc3cc(OC)c(OC)cc32)c1 | > 200 µM | 36.3 µM |  |
| C=CC[C@H](C)CCC(=O)N1[C@H]2CC3CC[C@@]2(CS1(=O)=O)C3(C)C | > 200 µM | 75.9 µM |  |
| COC(=O)c1ccccc1OCc1cc(=O)oc2ccc(C)cc12 |  |  | inactive |
| COc1cc(C#N)c(NC(=S)N2CCN(C(=O)c3ccco3)CC2)cc1OC | > 200 µM | 120 µM |  |
| O=C(CC1OC(O)C(Cl)=C1Cl)c1cccnc1 (stereo not given) | 24.5 µM | 501 µM |  |
| CC1(C)OCC2(CO1)CSCCCSCC1(COC(C)(C)OC1)CSCCCSC2 | > 10.5 µM | > 10.5 µM |  |
| O=C(O)CCC(=O)NCCNC(=O)CCC(=O)O | > 955 µM | > 955 µM |  |
| COC1OC(COCc2ccc(Cl)cc2)C(OCc2ccc(Cl)cc2)C1O (stereo not given) |  |  | inactive |
| [Cl-].[Co+2].c1cnc2c(c1)ccc1cccnc12.c1cnc2c(c1)ccc1cccnc12.c1cnc2c(c1)ccc1cccnc12 | > 100 µM | 0.977 µM |  |
| COc1ccccc1C1CC(=O)CC(c2ccccc2OC)C12C(=O)NC(=S)NC2=O (stereo not given) | > 200 µM | 46.8 µM |  |
| Cc1ccc2c(c1)sc1nnc(S(C)(=O)=O)n12 | > 200 µM | 11.2 µM |  |
| CCOC(=O)c1c(-c2ccccc2)c(OC)cn1C | > 200 µM | > 200 µM |  |
| O=C1NC(Cc2ccc(O)cc2)C(=O)N2CCCC12 (stereo not given) | > 955 µM | > 955 µM |  |
| COc1ccc(N=NC(=O)NC(CC(C)C)C(=O)NC(C)C(=O)O)cc1 (stereo not given) | > 200 µM | 2.82 µM |  |
| CCC12C=CCN3CCC4(c5cc(C6(C(=O)OC)CCCCCc7c6[nH]c6ccccc76)c(OC)cc5N(C)C4C(O)(C(=O)OC)C1OC(C)=O)C32 (stereo not given) | > 25.1 µM | 4.37 µM |  |
| COc1cc2c3c(c1)CCCN3CCC2 | > 200 µM | 13.2 µM |  |
| O=C(O)CC(NC(=O)Nc1ccc([N+](=O)[O-])cc1)C(=O)Nc1ccc([N+](=O)[O-])cc1 (stereo not given) | > 200 µM | > 200 µM |  |

| SMILES | EC50 | IC50 | outcome |
| --- | --- | --- | --- |
| COc1ccc2c(n1)Sc1c(Cl)nc(N)nc1N2 | > 158 µM | > 158 µM |  |
| O/N=C/c1ncccc1C1OCCO1 | > 257 µM | 141 µM |  |
| CN(/N=C\c1ccccc1Cl)C(c1ccccc1Cl)N(C)/N=C/c1ccccc1Cl (stereo not given) |  |  | inactive |
| Cc1cc(NS(=O)(=O)c2ccc(Nc3c4ccccc4nc4c(C(=O)NCCN(C)C)cccc34)cc2)no1 |  |  | inactive |
| CC1(C)N=C(c2ccccn2)C(c2ccccn2)=NC1(C)C | > 851 µM | 661 µM |  |
| COc1ccc(S(=O)(=O)N/N=C(\C)CN2C(=O)c3ccccc3C2=O)cc1OC | > 437 µM | > 437 µM |  |
| CC(CN(C)C)Nc1c2ccccc2nc2cccc([N+](=O)[O-])c12 (stereo not given) | > 2 µM | 0.977 µM |  |
| C=C(Nc1ccc(OC)cc1OC)C(=O)Cc1cccc[n+]1[O-] | > 794 µM | > 794 µM |  |
| CN(C)CCNC(=O)Cn1ccc(=O)c2ccc([N+](=O)[O-])cc21 | > 200 µM | > 200 µM |  |
| c1c2c(cc3c1OCO3)C(c1onc3cc4c(cc13)OCO4)=NCC2 |  |  | inactive |
| CCOC(=O)c1sc(Nc2cc(Cl)ccc2Cl)nc1C |  |  | inactive |
| C[C@]12CC[C@H](O)CC1=CCC1C2CC[C@@]2(C)C1CC[C@@H]2COS(=O)(=O)O (stereo not given in full) | > 61.7 µM | > 61.7 µM |  |
| NC(Cc1ccc(S(=O)(=O)O)cc1)C(=O)NC(Cc1ccc(S(=O)(=O)O)cc1)C(=O)NC(Cc1ccc(S(=O)(=O)O)cc1)C(=O)O (stereo not given) | > 200 µM | > 200 µM |  |
| CC1(C)N(OC2CCCCO2)C(c2ccccc2)C(c2ccccc2)=[N+]1[O-] (stereo not given) | > 200 µM | 35.5 µM |  |
| CCCNC(=S)N/N=C(\C)c1ccc(S(=O)(=O)N(C)c2ccccc2)cc1 | > 200 µM | > 200 µM |  |
| COc1c(Cl)cc(C(=CCCCCN[C@H]2CC[C@@]3(C)[C@@H](CC[C@@H]4[C@@H]3CC[C@]3(C)[C@@H](C(C)CCCC(C)C)CC[C@@H]43)C2)c2cc(Cl)c(OC)c(C(=O)O)c2)cc1C(=O)O (stereo not given in full) | > 200 µM | > 200 µM |  |
| COc1ccccc1Cn1nc(OC)c2cc([N+](=O)[O-])ccc21 | > 151 µM | > 151 µM |  |
| Nc1nnc2nc(CC(=O)c3cccc([N+](=O)[O-])c3)/c(=C/C(=O)c3cccc([N+](=O)[O-])c3)n12 | > 16.2 µM | > 16.2 µM |  |
| O=C(NC1CCCCC1)/C(=C\c1ccc(/C=C(/NC(=O)c2ccccc2)C(=O)NC2CCCCC2)cc1)NC(=O)c1ccccc1 | > 200 µM | 120 µM |  |
| O=C1NC(=O)/C(=C/c2ccc(F)cc2)N1 | > 200 µM | 191 µM |  |
| CC(C)(C)OC(=O)c1ccc(NCC2=CC(=O)C=CC2=O)cc1 | > 200 µM | 10.2 µM |  |
